From the supplement of paper PMC10307832

Tests used:
Assay in all cases: relative viability (nuclei count vs DMSO), 5 days (fraction); higher = more cells survive
NCI-H23 = system: NCI-H23
How it was run: (§1)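 Lung cancer cell lines were pin-tool dosed in 1536-well plates on the day after seeding, with either a lone drug or a fixed anchor-drug dose plus five library-drug doses (not always all listed) in √10 steps. Nuclei were counted on 4× images after 5 days. Relative viability is the ratio of treated-well to vehicle-well nuclei counts, with each value a median of duplicate plates.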

NCI-H2228 = system: NCI-H2228
How it was run: as §1

EMC-BAC-2 = system: EMC-BAC-2
How it was run: as §1

HCC-827 = system: HCC-827
How it was run: as §1

HCC-366 = system: HCC-366
How it was run: as §1

NCI-H2009 = system: NCI-H2009
How it was run: as §1

NCI-H460 = system: NCI-H460
How it was run: as §1

SW 1573 = system: SW 1573
How it was run: as §1

CAL-12T = system: CAL-12T
How it was run: as §1

NCI-H1792 = system: NCI-H1792
How it was run: as §1

NCI-H1437 = system: NCI-H1437
How it was run: as §1

A-427 = system: A-427
How it was run: as §1

NCI-H1755 = system: NCI-H1755
How it was run: as §1

LCLC-103H = system: LCLC-103H
How it was run: as §1

COR-L 105 = system: COR-L 105
How it was run: as §1

HARA = system: HARA
How it was run: as §1

HOP-62 = system: HOP-62
How it was run: as §1

NCI-H727 = system: NCI-H727
How it was run: as §1

SK-LU-1 = system: SK-LU-1
How it was run: as §1

NCI-H1915 = system: NCI-H1915
How it was run: as §1

SMILES: COc1cc2nccc(Oc3ccc(NC(=O)Nc4cc(C)on4)c(Cl)c3)c2cc1OC [Tivozanib] + C[C@@H](Oc1cc(-c2cnn(C3CCNCC3)c2)cnc1N)c1c(Cl)ccc(F)c1Cl [Crizotinib] (partner 1 µM)
- relative viability (NCI-H23; first compound 0.005 µM): 0.544
- relative viability (NCI-H23; first compound 0.01581 µM): 0.541
- relative viability (NCI-H23; first compound 0.05 µM): 0.474
- relative viability (NCI-H23; first compound 0.1581 µM): 0.461
- relative viability (NCI-H23; first compound 0.5 µM): 0.459
- relative viability (NCI-H2228; first compound 0.005 µM): 0.439
- relative viability (NCI-H2228; first compound 0.01581 µM): 0.421
- relative viability (NCI-H2228; first compound 0.05 µM): 0.491
- relative viability (NCI-H2228; first compound 0.1581 µM): 0.453
- relative viability (NCI-H2228; first compound 0.5 µM): 0.605
- relative viability (EMC-BAC-2; first compound 0.005 µM): 0.769
- relative viability (EMC-BAC-2; first compound 0.01581 µM): 0.807
- relative viability (EMC-BAC-2; first compound 0.05 µM): 0.74
- relative viability (EMC-BAC-2; first compound 0.1581 µM): 0.754
- relative viability (EMC-BAC-2; first compound 0.5 µM): 0.791
- relative viability (HCC-827; first compound 0.005 µM): 0.956
- relative viability (HCC-827; first compound 0.01581 µM): 0.928
- relative viability (HCC-827; first compound 0.05 µM): 0.938
- relative viability (HCC-827; first compound 0.1581 µM): 0.988
- relative viability (HCC-827; first compound 0.5 µM): 0.866
- relative viability (HCC-366; first compound 0.005 µM): 0.515
- relative viability (HCC-366; first compound 0.01581 µM): 0.59
- relative viability (HCC-366; first compound 0.05 µM): 0.502
- relative viability (HCC-366; first compound 0.1581 µM): 0.487
- relative viability (HCC-366; first compound 0.5 µM): 0.372
- relative viability (NCI-H2009; first compound 0.005 µM): 1.08
- relative viability (NCI-H2009; first compound 0.01581 µM): 1.02
- relative viability (NCI-H2009; first compound 0.05 µM): 1.1
- relative viability (NCI-H2009; first compound 0.1581 µM): 1.03
- relative viability (NCI-H2009; first compound 0.5 µM): 0.933
- relative viability (NCI-H460; first compound 0.005 µM): 0.889
- relative viability (NCI-H460; first compound 0.01581 µM): 1.09
- relative viability (NCI-H460; first compound 0.05 µM): 0.96
- relative viability (NCI-H460; first compound 0.1581 µM): 0.935
- relative viability (NCI-H460; first compound 0.5 µM): 0.897
- relative viability (SW 1573; first compound 0.005 µM): 0.901
- relative viability (SW 1573; first compound 0.01581 µM): 0.765
- relative viability (SW 1573; first compound 0.05 µM): 0.78
- relative viability (SW 1573; first compound 0.1581 µM): 0.749
- relative viability (SW 1573; first compound 0.5 µM): 0.829
- relative viability (CAL-12T; first compound 0.005 µM): 0.649
- relative viability (CAL-12T; first compound 0.01581 µM): 0.552
- relative viability (CAL-12T; first compound 0.05 µM): 0.568
- relative viability (CAL-12T; first compound 0.5 µM): 0.614
- relative viability (NCI-H1792; first compound 0.005 µM): 0.96
- relative viability (NCI-H1792; first compound 0.01581 µM): 1.01
- relative viability (NCI-H1792; first compound 0.05 µM): 1.07
- relative viability (NCI-H1792; first compound 0.1581 µM): 0.933
- relative viability (NCI-H1792; first compound 0.5 µM): 1.07
- relative viability (NCI-H1437; first compound 0.005 µM): 0.899
- relative viability (NCI-H1437; first compound 0.01581 µM): 0.932
- relative viability (NCI-H1437; first compound 0.05 µM): 0.859
- relative viability (NCI-H1437; first compound 0.1581 µM): 0.947
- relative viability (NCI-H1437; first compound 0.5 µM): 0.824
- relative viability (A-427; first compound 0.005 µM): 0.82
- relative viability (A-427; first compound 0.01581 µM): 0.84
- relative viability (A-427; first compound 0.05 µM): 0.986
- relative viability (A-427; first compound 0.1581 µM): 0.818
- relative viability (A-427; first compound 0.5 µM): 0.827
- relative viability (NCI-H1755; first compound 0.005 µM): 0.832
- relative viability (NCI-H1755; first compound 0.01581 µM): 0.845
- relative viability (NCI-H1755; first compound 0.05 µM): 0.937
- relative viability (NCI-H1755; first compound 0.1581 µM): 0.872
- relative viability (NCI-H1755; first compound 0.5 µM): 0.775
- relative viability (LCLC-103H; first compound 0.005 µM): 1.04
- relative viability (LCLC-103H; first compound 0.01581 µM): 0.952
- relative viability (LCLC-103H; first compound 0.05 µM): 1.04
- relative viability (LCLC-103H; first compound 0.1581 µM): 1.03
- relative viability (LCLC-103H; first compound 0.5 µM): 1.06
- relative viability (COR-L 105; first compound 0.01581 µM): 0.794
- relative viability (COR-L 105; first compound 0.05 µM): 0.797
- relative viability (COR-L 105; first compound 0.1581 µM): 0.775
- relative viability (COR-L 105; first compound 0.5 µM): 0.701
- relative viability (HARA; first compound 0.005 µM): 0.976
- relative viability (HARA; first compound 0.01581 µM): 1
- relative viability (HARA; first compound 0.05 µM): 1.21
- relative viability (HARA; first compound 0.1581 µM): 1.09
- relative viability (HARA; first compound 0.5 µM): 0.974
- relative viability (HOP-62; first compound 0.005 µM): 0.557
- relative viability (HOP-62; first compound 0.01581 µM): 0.939
- relative viability (HOP-62; first compound 0.05 µM): 0.928
- relative viability (HOP-62; first compound 0.1581 µM): 0.853
- relative viability (HOP-62; first compound 0.5 µM): 0.919
- relative viability (NCI-H727; first compound 0.005 µM): 0.72
- relative viability (NCI-H727; first compound 0.01581 µM): 0.843
- relative viability (NCI-H727; first compound 0.05 µM): 0.833
- relative viability (NCI-H727; first compound 0.5 µM): 0.869
- relative viability (SK-LU-1; first compound 0.005 µM): 0.909
- relative viability (SK-LU-1; first compound 0.01581 µM): 0.864
- relative viability (SK-LU-1; first compound 0.05 µM): 0.932
- relative viability (SK-LU-1; first compound 0.1581 µM): 0.614
- relative viability (SK-LU-1; first compound 0.5 µM): 0.84
- relative viability (NCI-H1915; first compound 0.005 µM): 0.863
- relative viability (NCI-H1915; first compound 0.01581 µM): 0.905
- relative viability (NCI-H1915; first compound 0.05 µM): 0.972
- relative viability (NCI-H1915; first compound 0.1581 µM): 0.924
- relative viability (NCI-H1915; first compound 0.5 µM): 0.857
